31 compounds from US9771370B2, “Compounds for the inhibition of indoleamine-2,3-dioxygenase” (Merck Patent GmbH, priority 2014, dated 2017) can be followed below.

A value given as a limit tells only on which side of the number the result lay.

For the test, the target named is Recombinant human IDO (Homo sapiens, UniProt P14902). The experiment in a line: Bridge-IT tryptophan fluorescence assay of human IDO-1 inhibition. Format: biochemical. The conditions noted are these: recombinant human IDO 7.5 nM, L-tryptophan. The protocol: Measurement of human IDO-1 inhibition is performed in 384 well format using the Bridge-IT® tryptophan Fluorescence Assay (Mediomics, LLC, St. Louis, Mo., U.S.A.).
Recombinant human IDO, sequence (P14902 whole entry): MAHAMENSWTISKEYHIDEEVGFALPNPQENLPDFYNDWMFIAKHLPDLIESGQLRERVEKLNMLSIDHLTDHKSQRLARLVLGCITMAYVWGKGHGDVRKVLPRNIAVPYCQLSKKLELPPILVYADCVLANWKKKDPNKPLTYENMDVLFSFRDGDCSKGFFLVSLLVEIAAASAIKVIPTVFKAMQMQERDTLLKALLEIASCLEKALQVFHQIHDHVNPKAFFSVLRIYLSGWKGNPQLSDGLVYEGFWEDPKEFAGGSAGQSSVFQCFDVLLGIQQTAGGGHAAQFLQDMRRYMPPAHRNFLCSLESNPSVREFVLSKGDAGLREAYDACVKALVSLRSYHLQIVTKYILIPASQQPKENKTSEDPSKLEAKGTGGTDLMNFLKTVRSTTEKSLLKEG
The reaction is initiated by the addition of L-Tryptophan (Sigma) at a final concentration of 100 μM in assay buffer. After 90 minutes of incubation at 37° C., the reaction is stopped by transferring 1 μl of the reaction mixture to 9 μl of Bridge-IT assay solution A. After 30 min of incubation at 30° C., the fluorescence intensity was measured at λex=485 nm and λem=665 nm using Perkin Elmer Envision® Multilabel Reader.
Measurement of human IDO-1 inhibition was performed in 384-well format using the BRIDGE-IT® tryptophan Fluorescence Assay (Mediomics, LLC, St. Louis, Mo., U.S.A.). […] After 30 minutes of pre-incubation at 25° C., the reaction was initiated by the addition of L-Tryptophan (Sigma) at a final concentration of 50 μM in assay buffer. After 60 minutes of incubation at 25° C., the reaction is stopped by transferring 1 μl of the reaction mixture to 9 μl of Bridge-IT assay solution A. After 30 min of incubation at 30° C., the fluorescence intensity was measured at λex=485 nm and λem=665 nm using Perkin Elmer ENVISION® Multilabel Reader.
A word on the IC50: it is the concentration that inhibits the measured activity by half. As to `OC(CC1c2ncccc2-c2cncn21)C1CCC2(CC1)CC2` (single isomer, unassigned) [Compound 29d, 1-[spiro[2.5]octan-6-yl]-2-[4,6,9-triazatricyclo[6.4.0.0^[2,6]]dodeca-1(8),2,4,9,11-pentaen-7-yl]ethan-1-ol], the IC50 is over 1000 nM.

For the compound `FC1(CCC2c3ncccc3-c3cncn32)CCC2(CC1)CC2` (single isomer, unassigned) [Compound 30a, 7-(2-{6-fluorospiro[2.5]octan-6-yl}ethyl)-4,6,9-triazatricyclo[6.4.0.0^[2,6]]dodeca-1(8),2,4,9,11-pentaene], the concentration for half-maximal inhibition (IC50) is 100 to 1000 nM.

Turning to `FC1(CCC2c3ncccc3-c3cncn32)CCC2(CC1)CC2` (single isomer, unassigned) [Compound 30b, 7-(2-{6-fluorospiro[2.5]octan-6-yl}ethyl)-4,6,9-triazatricyclo[6.4.0.0^[2,6]]dodeca-1(8),2,4,9,11-pentaene], the IC50 was over 1000 nM.

With `COc1ccc2c(n1)C(CCC1(F)CCCCC1)n1cncc1-2` (single isomer, unassigned) [Compound 32a, 7-[2-(1-fluorocyclohexyl)ethyl]-10-methoxy-4,6,9-triazatricyclo[6.4.0.0^[2,6]]dodeca-1(8),2,4,9,11-pentaene], the IC50 is over 1000 nM.

Consider `COc1ccc2c(n1)C(CCC1(F)CCCCC1)n1cncc1-2` (single isomer, unassigned) [Compound 32b, 7-[2-(1-fluorocyclohexyl)ethyl]-10-methoxy-4,6,9-triazatricyclo[6.4.0.0^[2,6]]dodeca-1(8),2,4,9,11-pentaene], for which the IC50 lay within 100 to 1000 nM.

Regarding `COc1ccc2c(n1)C(CCC1(F)CCC(F)(F)CC1)n1cncc1-2` (single isomer, unassigned) [Compound 34a, 10-methoxy-7-[2-(1,4,4-trifluorocyclohexyl)ethyl]-4,6,9-triazatricyclo[6.4.0.0^[2,6]]dodeca-1(8),2,4,9,11-pentaene], the IC50 is under 100 nM.

Turning to `COc1ccc2c(n1)C(CCC1(F)CCC(F)(F)CC1)n1cncc1-2` (single isomer, unassigned) [Compound 34b, 10-methoxy-7-[2-(1,4,4-trifluorocyclohexyl)ethyl]-4,6,9-triazatricyclo[6.4.0.0^[2,6]]dodeca-1(8),2,4,9,11-pentaene], the IC50 is over 1000 nM.

With `OC1CCC(F)(CCC2c3cccc(F)c3-c3cncn32)CC1` (single isomer, unassigned) [Compound 35a, 4-fluoro-4-(2-(9-fluoro-5H-imidazo[5,1-a]isoindol-5-yl)ethyl)cyclohexanol], the IC50 was over 1000 nM.

Take `OC1CCC(F)(CCC2c3cccc(F)c3-c3cncn32)CC1` (single isomer, unassigned) [Compound 35b, 4-fluoro-4-(2-(9-fluoro-5H-imidazo[5,1-a]isoindol-5-yl)ethyl)cyclohexanol]: the IC50 was 100 to 1000 nM.

With `OC1CCC(F)(CCC2c3cccc(F)c3-c3cncn32)CC1` (single isomer, unassigned) [Compound 35c, 4-fluoro-4-(2-(9-fluoro-5H-imidazo[5,1-a]isoindol-5-yl)ethyl)cyclohexanol], the half-maximal inhibitory concentration (IC50) was under 100 nM.

In the case of `OC1CCC(F)(CCC2c3cccc(F)c3-c3cncn32)CC1` (single isomer, unassigned) [Compound 35d, 4-fluoro-4-(2-(9-fluoro-5H-imidazo[5,1-a]isoindol-5-yl)ethyl)cyclohexanol], the IC50 was over 1000 nM.

For `Fc1cccc2c1-c1cncn1C2CCC1(F)CCCCC1` (single isomer, unassigned) [Compound 36a, 9-fluoro-5-(2-(1-fluorocyclohexyl)ethyl)-5H-imidazo[5,1-a]isoindole], the IC50 is over 1000 nM.

In the case of `Fc1cccc2c1-c1cncn1C2CCC1(F)CCCCC1` (single isomer, unassigned) [Compound 36b, 9-fluoro-5-(2-(1-fluorocyclohexyl)ethyl)-5H-imidazo[5,1-a]isoindole], the IC50 is over 1000 nM.

As to `Fc1ccc(F)c2c1-c1cncn1C2CCC1(F)CCCCC1` (single isomer, unassigned) [Compound 37a, 6,9-difluoro-5-(2-(1-fluorocyclohexyl)ethyl)-5H-imidazo[5,1-a]isoindole], the IC50 was over 1000 nM.

`Fc1ccc(F)c2c1-c1cncn1C2CCC1(F)CCCCC1` (single isomer, unassigned) [Compound 37b, 6,9-difluoro-5-(2-(1-fluorocyclohexyl)ethyl)-5H-imidazo[5,1-a]isoindole]: the half-inhibitory concentration (IC50) is 100 to 1000 nM.

`OC1CCC(F)(CCC2c3c(F)ccc(F)c3-c3cncn32)CC1` (single isomer, unassigned) [Compound 38a, 4-(2-(6,9-difluoro-5H-imidazo[5,1-a]isoindol-5-yl)ethyl)-4-fluorocyclohexanol]: the IC50 is over 1000 nM.

`OC1CCC(F)(CCC2c3c(F)ccc(F)c3-c3cncn32)CC1` (single isomer, unassigned) [Compound 38b, 4-(2-(6,9-difluoro-5H-imidazo[5,1-a]isoindol-5-yl)ethyl)-4-fluorocyclohexanol]: the IC50 is 100 to 1000 nM.

With `OC1CCC(F)(CCC2c3c(F)ccc(F)c3-c3cncn32)CC1` (single isomer, unassigned) [Compound 38c, 4-(2-(6,9-difluoro-5H-imidazo[5,1-a]isoindol-5-yl)ethyl)-4-fluorocyclohexanol], the IC50 was over 1000 nM.

As for `OC1CCC(F)(CCC2c3c(F)ccc(F)c3-c3cncn32)CC1` (single isomer, unassigned) [Compound 38d, 4-(2-(6,9-difluoro-5H-imidazo[5,1-a]isoindol-5-yl)ethyl)-4-fluorocyclohexanol], the IC50 was under 100 nM.

For `COc1ccc2c(n1)C(CC(O)C1CCCCC1)n1cncc1-2` (single isomer, unassigned) [Compound 39a, 1-Cyclohexyl-2-[10-methoxy-4,6,9-triazatricyclo[6.4.0.0^[2,6]]dodeca-1(8),2,4,9,11-pentaen-7-yl]ethan-1-ol], the concentration for half-maximal inhibition (IC50) was under 100 nM.

`COc1ccc2c(n1)C(CC(O)C1CCCCC1)n1cncc1-2` (single isomer, unassigned) [Compound 39b, 1-Cyclohexyl-2-[10-methoxy-4,6,9-triazatricyclo[6.4.0.0^[2,6]]dodeca-1(8),2,4,9,11-pentaen-7-yl]ethan-1-ol]: the 50% inhibitory concentration (IC50) was in the range of 100 to 1000 nM.

Regarding `COc1ccc2c(n1)C(CC(O)C1CCC(C)(C)CC1)n1cncc1-2` (single isomer, unassigned) [Compound 40a, 1-(4,4-dimethylcyclohexyl)-2-[10-methoxy-4,6,9-triazatricyclo[6.4.0.0^[2,6]]dodeca-1(8),2,4,9,11-pentaen-7-yl]ethan-1-ol], the half-inhibitory concentration (IC50) was over 1000 nM.

On to `COc1ccc2c(n1)C(CC(O)C1CCC(C)(C)CC1)n1cncc1-2` (single isomer, unassigned) [Compound 40b, 1-(4,4-dimethylcyclohexyl)-2-[10-methoxy-4,6,9-triazatricyclo[6.4.0.0^[2,6]]dodeca-1(8),2,4,9,11-pentaen-7-yl]ethan-1-ol], for which the half-inhibitory concentration (IC50) is 100 to 1000 nM.

For the compound `COc1cccc2c1-c1cncn1C2CCC1(F)CCCCC1` (single isomer, unassigned) [Compound 42a, 5-(2-(1-fluorocyclohexyl)ethyl)-9-methoxy-5H-imidazo[5,1-a]isoindole], the IC50 was over 1000 nM.

Take `COc1cccc2c1-c1cncn1C2CCC1(F)CCCCC1` (single isomer, unassigned) [Compound 42b, 5-(2-(1-fluorocyclohexyl)ethyl)-9-methoxy-5H-imidazo[5,1-a]isoindole]: the IC50 lay within 100 to 1000 nM.

Turning to `Oc1cccc2c1-c1cncn1C2CCC1(F)CCCCC1` (single isomer, unassigned) [Compound 43a, 5-(2-(1-fluorocyclohexyl)ethyl)-5H-imidazo[5,1-a]isoindol-9-ol], the IC50 was over 1000 nM.

For `Oc1cccc2c1-c1cncn1C2CCC1(F)CCCCC1` (single isomer, unassigned) [Compound 43b, 5-(2-(1-fluorocyclohexyl)ethyl)-5H-imidazo[5,1-a]isoindol-9-ol], the IC50 was under 100 nM.

As for `COc1ccc(F)c2c1-c1cncn1C2CCC1(F)CCCCC1` (single isomer, unassigned) [Compound 45a, 6-fluoro-5-(2-(1-fluorocyclohexyl)ethyl)-9-methoxy-5H-imidazo[5,1-a]isoindole], the IC50 was over 1000 nM.

With `COc1ccc(F)c2c1-c1cncn1C2CCC1(F)CCCCC1` (single isomer, unassigned) [Compound 45b, 6-fluoro-5-(2-(1-fluorocyclohexyl)ethyl)-9-methoxy-5H-imidazo[5,1-a]isoindole], the IC50 is over 1000 nM.

Consider `CC1(C)CCC(F)(CCC2c3ncccc3-c3cncn32)CC1` (single isomer, unassigned) [Compound 48a, 7-[2-(1-fluoro-4,4-dimethylcyclohexyl)ethyl]-4,6,9-triazatricyclo[6.4.0.0^[2,6]]dodeca-1(8),2,4,9,11-pentaene], for which the 50% inhibitory concentration (IC50) was over 1000 nM.

Turning to `CC1(C)CCC(F)(CCC2c3ncccc3-c3cncn32)CC1` (single isomer, unassigned) [Compound 48b, 7-[2-(1-fluoro-4,4-dimethylcyclohexyl)ethyl]-4,6,9-triazatricyclo[6.4.0.0^[2,6]]dodeca-1(8),2,4,9,11-pentaene], the half-inhibitory concentration (IC50) was over 1000 nM.
